Data as given in PubChem BioAssay (NCI).
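96-well plates; 48 h exposure; 5 concentrations. Endpoints by linear interpolation between flanking doses. Not reached: highest tested concentration assigned. GI50 is the concentration that inhibits growth by half. TGI marks complete inhibition of growth.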

Key:
Experiment in all cases: NCI tumour cell line growth inhibition, 48 h
[1] = test system: 786-0 renal
[2] = test system: A498 renal
[3] = test system: A549 NSCLC
[4] = test system: ACHN renal
[5] = test system: BT-549 breast
[6] = test system: CAKI-1 renal
[7] = test system: CCRF-CEM leukemia
[8] = test system: COLO 205 colon
[9] = test system: DU-145 prostate
[10] = test system: EKVX NSCLC
[11] = test system: HCC-2998 colon
[12] = test system: HCT-116 colon
[13] = test system: HCT-15 colon
[14] = test system: HL-60(TB) leukemia
[15] = test system: HOP-62 NSCLC
[16] = test system: HOP-92 NSCLC
[17] = test system: HT29 colon
[18] = test system: IGROV1 ovarian
[19] = test system: K-562 leukemia
[20] = test system: KM12 colon
[21] = test system: LOX IMVI melanoma
[22] = test system: M14 melanoma
[23] = test system: MALME-3M melanoma
[24] = test system: MCF7 breast
[25] = test system: MDA-MB-231 breast
[26] = test system: MDA-MB-435
[27] = test system: MOLT-4 leukemia
[28] = test system: NCI-H226 lung
[29] = test system: NCI-H23 lung
[30] = test system: NCI-H460 lung
[31] = test system: NCI-H522 lung
[32] = test system: NCI/ADR-RES ovarian
[33] = test system: OVCAR-3 ovarian
[34] = test system: OVCAR-5 ovarian
[35] = test system: OVCAR-8 ovarian
[36] = test system: RPMI-8226 leukemia
[37] = test system: RXF 393 renal
[38] = test system: SK-MEL-2 melanoma
[39] = test system: SK-MEL-28 melanoma
[40] = test system: SK-MEL-5 melanoma
[41] = test system: SK-OV-3 ovarian
[42] = test system: SN12C renal
[43] = test system: SNB-19 CNS
[44] = test system: SNB-75 CNS
[45] = test system: SR leukemia
[46] = test system: TK-10 renal
[47] = test system: U251 CNS
[48] = test system: UACC-257 melanoma
[49] = test system: UACC-62 melanoma
[50] = test system: UO-31 renal

## O=C1N=C(c2c(-c3[nH]c(=O)c4ccc(Br)cc4c3O)c(O)c3ccccc3c2O)C(=O)c2cc(Br)ccc21
[1]
  GI50: 360 nM
  TGI: 805 nM
[2]
  GI50: 4.4 nM
  TGI: > 16700 nM
[3]
  GI50: 577 nM
  TGI: > 16700 nM
[4]
  GI50: 333 nM
  TGI: 908 nM
[5]
  GI50: 422 nM
  TGI: 1350 nM
[6]
  GI50: 379 nM
  TGI: 1030 nM
[7]
  GI50: 930 nM
  TGI: > 16700 nM
[8]
  GI50: > 16700 nM
  TGI: > 16700 nM
[9]
  GI50: 427 nM
  TGI: 1110 nM
[10]
  GI50: 353 nM
  TGI: 1530 nM
[11]
  GI50: 347 nM
  TGI: 832 nM
[12]
  GI50: 378 nM
  TGI: 1000 nM
[13]
  GI50: 306 nM
  TGI: 672 nM
[14]
  GI50: > 16700 nM
  TGI: > 16700 nM
[15]
  GI50: 292 nM
  TGI: 660 nM
[16]
  GI50: > 16700 nM
  TGI: > 16700 nM
[17]
  GI50: > 8040 nM
  TGI: > 16700 nM
[18]
  GI50: 493 nM
  TGI: 1410 nM
[19]
  GI50: 593 nM
  TGI: > 16700 nM
[20]
  GI50: 566 nM
  TGI: 1970 nM
[21]
  GI50: 281 nM
  TGI: 554 nM
[22]
  GI50: 523 nM
  TGI: 1600 nM
[23]
  GI50: 367 nM
  TGI: 770 nM
[24]
  GI50: 335 nM
  TGI: 1210 nM
[25]
  GI50: 585 nM
  TGI: > 16700 nM
[26]
  GI50: 1030 nM
  TGI: 4740 nM
[27]
  GI50: > 3710 nM
  TGI: > 16700 nM
[28]
  GI50: 335 nM
  TGI: 937 nM
[29]
  GI50: 300 nM
  TGI: 785 nM
[30]
  GI50: 417 nM
  TGI: 1020 nM
[31]
  GI50: 359 nM
  TGI: 1110 nM
[32]
  GI50: 363 nM
  TGI: 1080 nM
[33]
  GI50: 388 nM
  TGI: 932 nM
[34]
  GI50: > 8370 nM
  TGI: > 16700 nM
[35]
  GI50: 526 nM
  TGI: > 16700 nM
[36]
  GI50: > 3430 nM
  TGI: > 16700 nM
[37]
  GI50: 296 nM
  TGI: 646 nM
[38]
  TGI: > 4940 nM
[39]
  GI50: 375 nM
  TGI: 926 nM
[40]
  GI50: 479 nM
  TGI: 1470 nM
[41]
  GI50: 388 nM
  TGI: 1220 nM
[42]
  GI50: 359 nM
  TGI: 790 nM
[43]
  GI50: 611 nM
  TGI: > 16700 nM
[44]
  GI50: 261 nM
  TGI: 537 nM
[45]
  GI50: 944 nM
  TGI: > 16700 nM
[46]
  GI50: 484 nM
  TGI: 1180 nM
[47]
  GI50: 370 nM
  TGI: 798 nM
[48]
  GI50: 480 nM
  TGI: 1110 nM
[49]
  TGI: > 16700 nM
[50]
  GI50: 287 nM
  TGI: 638 nM
